From patent US10406227B2, “Photoactivated molecules for light-induced modulation of the activity of electrically excitable cells and methods of using same” (University of Southern California, priority 2012, dated 2019)
“Also recorded” adds a separate entry of the source.

How the values were obtained:
[1] = tested on: leech ganglion neurons; experiment: Ex vivo leech ganglion neuron recording; assay type: cell-based, Hirudo verbana; conditions: ex vivo ganglia
Description: Adult leeches Hirudo verbana will be obtained from Niagara Medical Leeches, Inc. (Westbury, N.Y., USA). Groups (20-30) of animals will be kept in glass aquaria with artificial pond water (36 mg/L Instant Ocean salts; Aquarium Systems, Mentor Ohio), in a temperature-controlled room at 16° C. and a 12:12 h light:dark cycle. At the time of experiments, leeches will weigh 1-3 g. Before dissection, the leech will be anesthetized in ice-cold leech saline. Leech saline has the following composition (in mM per liter): NaCl-115, KCl-4, CaCl2-1.8, MgCl2-2, HEPES-10, D-Glucose-5 (Sigma-Aldrich, USA). Individual ganglia will be dissected from the mid-body segments M6-M12, and pinned down in Sylgard-filled dissection box. Medial dorsal longitudinal incision will be made and the blood will be flushed away. Connective tissue and the blood vessel overlaying the ganglion chain will be incised. Dissected ganglia will be transferred to a Petri dish, pinned down in paraffin with six stainless steel pins (dorsal side up). PVNs will be microinjected into the extracellular space of the ganglion with a glass micropipette. Intracellular recording will be performed by penetrating the Retzius neurons with sharp glass electrodes (20-30 MOhm) filled with 3M potassium acetate. […] Neuronal firing will be recorded before and after the injections.

[2] = tested on: cell lines and primary cells; experiment: Cell health / tolerance on RubpyC17 exposure (stable gigaseal, viability); assay type: cell-based
Description: However, in several embodiments, other organic ligands coupled to other transition metals are also used, with reduced and/or non-existent adverse side effects. […] Excessive and prolonged whole cell incubation with RubpyC17 (e.g., >10 μM for >5 min) may result in cell toxicity, since a stable gigaseal cannot be stably maintained in those cells. At this time, the mechanism behind the adverse effects on cell health upon RubpyC17 overexposure is not yet fully known. Since perforation was not achieved when a small patch of membrane was exposed to a high dose of RupbyC17, it was hypothesized that when an entire cell is overexposed to RubpyC17, there may be sufficient random interactions between excess RubpyC17 complex and endogenous surface molecules (i.e., proteins, carbohydrates, sugars), triggering signals that lead to cell health deterioration. However, when used in its appropriate dose range (e.g., <about 10 μM for cell lines and <about 2 μM for primary cells, according to one embodiment), RubpyC17 is tolerated by cells and consistently confers light sensitivity.

[Ru(bpy)2(bpy-C17)](PF6)2 [RubpyC17]
light-induced action potential firing [1]: respond to illumination by firing action potentials; also recorded: light-induced increases in action potential firing
tolerated dose range ([2]; cell lines): < 10 µM
whole cell incubation concentration that may result in cell toxicity ([2]; for >5 min, stable gigaseal not maintained): > 10 µM
viability of chromaffin cells ([2]; incubations of ˜30 min): continued viability
tolerated dose range ([2]; primary cells): < 2 µM
